Source: patent publication US9359650B2, “Biomass pre-treatment for co-production of high-concentration C5- and C6-carbohydrates and their derivatives” (Wisconsin Alumni Research Foundation, priority 2013, dated 2016)

Legend:
[1] = test system: S. cerevisiae PE2; assay: S. cerevisiae salt and GVL toxicity testing (growth, OD600); format: cell-based; settings: S. cerevisiae PE2, optical density after 40 hr of growth, 30° C., Yeast Nitrogen Base, 0.5% glucose plus wt % GVL or NaCl; FIGS. 22A/22B
Protocol: The strain used in these experiments was S. cerevisiae PE2 and in all cases was grown at 30° C. The toxicity medium used was formulated using 10x Yeast Nitrogen Base without Amino Acids, 0.5% glucose and the appropriate wt % of GVL or sodium chloride (Sigma). A single colony of S. cerevisiae was picked from YPD agar and grown overnight in 5 ml of YPD media (glass culture tubes, 20×150 mm, Fisher Scientific) agitated at 250 rpm in the incubator shaker. The resulting solution was used to inoculate 2 ml of the toxicity medium to an OD600 of 0.01 in 13×100 mm tubes (Fisher Scientific). The tubes were incubated for 40 hours under same conditions and sampled as described above.

[2] = test system: E. coli MG1655; assay: E. coli salt and GVL toxicity testing (growth, OD600); format: cell-based; settings: E. coli MG1655, optical density after 24 hr of growth, 37° C., MOPS minimal media with 0.5% glucose plus wt % GVL or NaCl; FIGS. 22A/22B
Protocol: The strain used in these experiments was wild type E. coli MG1655 and in all cases was grown at 37° C. The toxicity medium used was based on MOPS minimal media with 0.5% glucose and supplemented with the appropriate wt % of GVL or sodium chloride (Sigma). A single colony of E. coli was picked from LB agar and grown overnight in 5 ml of LB media (glass culture tubes, 20×150 mm, Fisher Scientific) agitated at 250 rpm in an incubator shaker (New Brunswick Scientific). The resulting solution was used to inoculate 2 ml of the toxicity medium to an OD600 of 0.01 in 13×100 mm tubes (Fisher Scientific). The tubes were incubated for 24 hours under the same conditions as described in the main methods and a final OD600 measured using a Biomate 3 spectrophotometer (ThermoFisher).

SMILES: [Cl-].[Na+] [NaCl, sodium chloride]
- effect of concentration on microbial growth (optical density) [1]: can inhibit microbial growth
- effect of concentration on microbial growth (optical density) [2]: can inhibit microbial growth

SMILES: CC1CCC(=O)O1 (stereo not shown) [GVL, gamma-valerolactone]
- effect of concentration on microbial growth (optical density) [1]: can inhibit microbial growth
- effect of concentration on microbial growth (optical density) [2]: can inhibit microbial growth
